Consider three compounds from patent US20240180895A1, “USE OF KAPPA OPIOID RECEPTOR AGONISTS TO TREAT CARDIOVASCULAR DISEASE” (Board of Supervisors of Louisiana State University and …, priority 2021, published 2024).

Holding throughout (type): in vivo, rat
Experiment [1] has as its system conscious Sprague-Dawley rats. The experiment in a line: Acute cardiovascular and renal excretory studies, i.v. bolus (Example 3). The conditions noted are these: for Effect on heart rate (HR) / Effect on MAP / Potassium concentration [K+] in cumulative urine / Sodium concentration [Na+] in cumulative urine / Urine osmolality / Total urine output: i.v. bolus; for Effect on heart rate (HR) / Effect on MAP: 90-min protocol; for Effect on MAP: diuretic alone; for Potassium concentration [K+] in cumulative urine / Sodium concentration [Na+] in cumulative urine / Urine osmolality: cumulative 90-min urine, same doses; for Potassium concentration [K+] in cumulative urine / Sodium concentration [Na+] in cumulative urine / Urine osmolality / Total urine output: mean±SEM; for Total urine output: cumulative urine of 90-min protocol, nalfurafine 5 μg kg−1, furosemide 7.5 mg kg−1, HCTZ 2.5 mg kg−1, amiloride 2 mg kg−1, n=6. How it is done:
(§1) Animals: Male Sprague-Dawley (SD) rats (Envigo Labs, Indianapolis, IN), 300-350 g, were individually housed under a 12 h light-dark cycle and allowed tap water and standard rodent diet ad libitum. Rats were randomly assigned to experimental groups for all acute and subacute studies. All procedures were approved by the Louisiana State University Health Sciences Center Institutional Animal Care and Use Committee and conducted in accordance with the National Institutes of Health guidelines for the care and use of animals.
Surgical Procedures: Aseptic technique was followed for all surgical procedures. On the morning of the experiment, rats were anesthetized with and maintained under inhaled 2% isoflurane, and polyethylene catheters (PE50; BD Diagnostics, Sparks, MD) were surgically inserted into the left femoral vein and left femoral artery for the infusion of saline and/or drug administration and the recording of arterial blood pressure, respectively. Subsequently, a suprapubic incision was made and a flanged polyethylene catheter (PE240; BD Diagnostics, Sparks, MD) was inserted into the bladder, exteriorized, and sutured to surrounding muscle and skin. Rats were then placed in an elevated restrainer (Krowicki & Kapusta, 2011) to recover from surgery and allow collection of urine. When acute experimental protocols were completed, rats were anesthetized via isoflurane and decapitated.
Acute Cardiovascular and Renal Excretory Studies: Following surgery, rats received an i.v. infusion of isotonic saline at 55 μL min^−1 throughout the duration of the experiment and were allowed 4-6 hours to recover from anesthesia. Arterial catheters were connected to a pressure transducer (MLT0670, ADInstruments, Sydney, Australia), which was connected to Powerlab 8/30 (ADInstruments) for recording of pulsatile and mean arterial blood pressure (MAP) and heart rate (HR). Blood pressure and HR were visualized using LabChart software (v8.1.5; ADInstruments). […] Following this control period, drug or vehicle (isotonic saline) was injected into the femoral vein catheter at a volume of 2 cc kg^−1, and urines were collected in 10 minute periods for a span of 90 minutes. […] All groups are n=6. Urine volume was measured gravimetrically, urine sodium and potassium concentrations were measured using flame photometry (model 943; Instrumentation Laboratories, Lexington, MA), and urine osmolality was measured using a vapor pressure osmometer (model 5600; WESCOR, Logan, UT).
(§2) Experimental Design and Analysis: All results are expressed as mean±SEM. […] Means between groups for total urine output, Na^+ concentration, K^+ concentration, and urine osmolality were compared using a Student's t-test. Statistical significance was characterized as P<0.05. Statistics were carried out using Prism 7.05 software (GraphPad Software, Inc., San Diego, CA) and IBM SPSS Statistics (IBM, Armonk, NY).

In experiment [2] the test system is conscious Sprague-Dawley rats. The experiment in a line: Metabolic cage renal excretory studies, oral gavage (Example 3). The note with it: oral gavage, mean±SEM; for Potassium concentration [K+] in cumulative urine / Sodium concentration [Na+] in cumulative urine: cumulative 5-hour urine, same doses; for Total urine output: cumulative urine of 5-hour protocol, nalfurafine 150 μg kg−1, furosemide 50 mg kg−1, HCTZ 5 mg kg−1, amiloride 5 mg kg−1, n=6. How it is done:
as §1
Metabolic Cage Renal Excretory Studies: Rats were placed in metabolic cages (model 18cv, Fenco, Cataumet, MA) for 2 hours to allow for acclimation and voiding of residual urine. Following the acclimation period, rats were volume loaded with 20 cc kg^−1 drug or vehicle (isotonic saline) via oral gavage. Urines were collected each hour over a 5-hour period. Following completion of the study rats were returned to their home cages. […] These points are marked on the figures with number of measurements in parentheses.
as §2

Experiment [3] concerns conscious Sprague-Dawley rats. The experiment in a line: Acute cardiovascular and renal excretory studies with ICV or IV norBNI pretreatment (Example 4). Here is the method: Male Sprague-Dawley rats (Envigo Labs, Indianapolis, IN) were individually housed, allowed tap water and standard rodent diet ad libitum, and kept under a 12-hour light-dark cycle. Rats used in these experiments weighed between 300 and 350 grams and were randomly assigned to experimental groups. All procedures were conducted in accordance with the National Institutes of Health guidelines for the care and use of animals and approved by the Louisiana State University Health Sciences Center Institutional Animal Care and Use Committee.
Aseptic technique was adhered to for all surgeries and detailed surgical methods were followed as previously described.^14 Briefly, 3-5 days before experimentation, rats requiring central ventricle access for administration of drug/vehicle into the brain were anesthetized with ketamine and xylazine and a stainless-steel cannula was stereotaxically implanted into the right lateral cerebral ventricle.^14
On the morning of the experiment, rats were anesthetized and maintained with inhaled 2% isoflurane, and polyethylene catheters were surgically placed into the left femoral artery, left femoral vein, and urinary bladder.^15.16 Following surgery, rats were placed in an elevated restrainer for recovery and collection of urine from an indwelling bladder catheter.^15 After completion of experimental protocols, rats were anesthetized with isoflurane and decapitated.
During stabilization of cardiovascular and renal excretory parameters, rats received an isotonic saline infusion (55 μl/min), which lasted throughout the duration of the experiment. To record mean arterial pressure (MAP) and heart rate (HR), arterial catheters were connected to a pressure transducer (MLT0670, ADInstruments, Sydney, Australia), which was connected to Powerlab 8/30 (ADInstruments) and visualized using LabChart software (v8.1.5; ADInstruments). After one hour of recovery from surgery, rats were pretreated with the KOR antagonist norBNI or isotonic saline vehicle through either an intracerebroventricular (ICV) catheter or intravenous (IV) catheter. […] Next, drug or vehicle (isotonic saline) was injected into the femoral vein and urine samples were collected every 10 minutes during a 90-minute experimental period. The following drug concentrations were used: nalfurafine 5 μg/kg, difelikefalin 10 μg/kg, norBNI 30 mg/kg (IV), norBNI 1 μg/5 μL (ICV). All groups are n=6. Urine sodium and potassium were measured using a flame photometer (model 943; Instrumentation Laboratories, Lexington, MA). Urine volume was measured gravimetrically, and urine osmolality was measured using a vapor pressure osmometer (model 5600; WESCOR, Logan, UT).
All results are expressed as mean±SEM. For determining statistically different changes at time points within a treatment group, means were compared to the control value using 2-way ANOVA with repeated measures and a post hoc Dunnett test following confirmation of a significant F value. For statistically different changes at individual time points between treatment groups, mean values were compared using 2-way ANOVA with repeated measures and a post hoc Sidak test following confirmation of a significant/value. For means between groups for total urine output, urine sodium concentration, urine potassium concentration, and urine osmolality, a Student/test was used. Statistical significance was characterized as P<0.05 and statistics were performed on Prism 7.05 software (GraphPad Software, Inc, San Diego, CA).

For `NS(=O)(=O)c1cc2c(cc1Cl)NCNS2(=O)=O` [HCTZ, hydrochlorothiazide], in experiment [1] (after i.v. bolus), the “Duration of the increase in urine flow rate above control” value is “returned to baseline levels by 50-min”. Moreover, in experiment [1], the “Effect on heart rate (HR)” value was “did not produce any changes in MAP or HR”, the “Effect on MAP” value is reported as “did not produce any changes in MAP or HR”, the “Potassium concentration [K+] in cumulative urine” value (“Potassium concentration [K+]” for short) is 14.76±3.12 μeq ml^−1 and the “Sodium concentration [Na+] in cumulative urine” value (“Sodium concentration [Na+]” below) is 155.6±8.04 μeq ml^−1. Moreover, in experiment [1], the Urine osmolality was determined as 439.3 ± 15.94 mmol/kg and the Total urine output came to 9.22 ± 0.50 mL. Besides, in experiment [2], the “Potassium concentration [K+]” value was found to be 26.50±1.91 μeq ml^−1, the “Sodium concentration [Na+]” value is 119.70±3.04 μeq ml^−1 and the Total urine output amounted to 14.55 ± 0.57 mL.

`N=C(N)NC(=O)c1nc(Cl)c(N)nc1N` [amiloride]: in experiment [1] (after i.v. bolus), the “Duration of the increase in urine flow rate above control” value is 30 min and the “Time of peak diuresis (urine flow rate)” value stood at 10 min. For the same compound, in experiment [1], the “Effect on heart rate (HR)” value is given as “Heart rate did not change”, the “Effect on MAP” value was “minimal effects on MAP”, the “Potassium concentration [K+]” value was 0.85±0.19 μeq ml^−1 and the “Sodium concentration [Na+]” value is 137.60±6.01 μeq ml^−1. In experiment [1], this compound yielded a Urine osmolality of 398.3 ± 18.05 mmol/kg and a Total urine output of 8.42 ± 0.40 mL. In experiment [2], the “Potassium concentration [K+]” value was found to be 4.02±0.54 μeq ml^−1, the “Sodium concentration [Na+]” value is 130.9±5.32 μeq ml^−1 and the Total urine output came out at 8.61 ± 0.63 mL.

On to `Oc1ccc2c3c1O[C@H]1c4[nH]c5c(c4C[C@@]4(O)[C@@H](C2)N(CC2CC2)CC[C@]314)C[C@@]1(O)[C@H]2Cc3ccc(O)c4c3[C@@]1(CCN2CC1CC1)[C@H]5O4` [norBNI, norbinaltorphimine], for which the “Effect of norBNI pretreatment on the diuresis” value is “significantly attenuated the peak increase and duration of the difelikefalin-induced diuresis” in experiment [3] (norBNI 1 μg/5 μL ICV before difelikefalin 10 μg/kg IV); “markedly attenuated” in experiment [3] (norBNI 1 μg/5 μL ICV before nalfurafine 5 μg/kg IV); “completely blocked the diuresis” in experiment [3] (norBNI 30 mg/kg IV before difelikefalin 10 μg/kg IV); “nearly abolished” in experiment [3] (norBNI 30 mg/kg IV before nalfurafine 5 μg/kg IV).
